Results: patent publication US20210396743A1 (priority 2020, published 2021)
Entries after “also recorded” stand apart in the source; their conditions may differ. Read-outs that look alike come from different tables or passages of the source. Residues, ends and D or L forms follow the SMILES beside them.

Experiments:
[1] = biological target: T1, SdeA181-1000 (Legionella pneumophila subsp. pneumophila, UniProt Q5ZTK4); type: biochemical, L. pneumophila
[2] = biological target: T1, SdeA181-1000; type: biochemical, L. pneumophila; remark: listed apart in the source
[3] = biological target: T1, SdeA181-1000; type: biochemical, L. pneumophila; remark: listed apart in the source
[4] = biological target: SdeA (Legionella pneumophila subsp. pneumophila, UniProt Q5ZTK4); conditions: cited from earlier work
[5] = system: SdeA; type: biochemical, L. pneumophila; conditions: 100 μM analogue, 100 μM ubiquitin, 0.5 μM enzyme, emission 410 nm

T1 sequence (Q5ZTK4 181-1000 limits assumed): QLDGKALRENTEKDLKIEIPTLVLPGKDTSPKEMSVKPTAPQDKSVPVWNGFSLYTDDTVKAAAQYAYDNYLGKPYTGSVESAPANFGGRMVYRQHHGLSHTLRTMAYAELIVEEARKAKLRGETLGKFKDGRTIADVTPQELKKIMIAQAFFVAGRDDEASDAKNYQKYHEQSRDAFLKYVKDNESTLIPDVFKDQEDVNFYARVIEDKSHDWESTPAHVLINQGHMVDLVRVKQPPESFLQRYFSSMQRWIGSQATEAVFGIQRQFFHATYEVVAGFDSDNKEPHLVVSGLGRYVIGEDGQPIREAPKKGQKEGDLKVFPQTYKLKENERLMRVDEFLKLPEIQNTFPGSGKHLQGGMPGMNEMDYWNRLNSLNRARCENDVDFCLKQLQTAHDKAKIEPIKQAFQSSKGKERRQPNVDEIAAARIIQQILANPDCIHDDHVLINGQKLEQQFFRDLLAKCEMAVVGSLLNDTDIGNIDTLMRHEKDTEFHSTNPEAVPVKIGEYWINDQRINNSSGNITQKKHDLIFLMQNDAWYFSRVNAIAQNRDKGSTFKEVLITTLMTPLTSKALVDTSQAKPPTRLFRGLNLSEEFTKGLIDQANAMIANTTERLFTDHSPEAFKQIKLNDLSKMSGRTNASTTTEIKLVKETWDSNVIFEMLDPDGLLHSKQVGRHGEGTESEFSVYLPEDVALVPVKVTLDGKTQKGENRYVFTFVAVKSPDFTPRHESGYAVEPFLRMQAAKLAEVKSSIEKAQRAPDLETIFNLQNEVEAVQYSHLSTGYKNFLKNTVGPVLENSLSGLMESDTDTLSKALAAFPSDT
Sequence of SdeA (Legionella pneumophila subsp. pneumophila, UniProt Q5ZTK4) (Q5ZTK4 whole entry, looked up): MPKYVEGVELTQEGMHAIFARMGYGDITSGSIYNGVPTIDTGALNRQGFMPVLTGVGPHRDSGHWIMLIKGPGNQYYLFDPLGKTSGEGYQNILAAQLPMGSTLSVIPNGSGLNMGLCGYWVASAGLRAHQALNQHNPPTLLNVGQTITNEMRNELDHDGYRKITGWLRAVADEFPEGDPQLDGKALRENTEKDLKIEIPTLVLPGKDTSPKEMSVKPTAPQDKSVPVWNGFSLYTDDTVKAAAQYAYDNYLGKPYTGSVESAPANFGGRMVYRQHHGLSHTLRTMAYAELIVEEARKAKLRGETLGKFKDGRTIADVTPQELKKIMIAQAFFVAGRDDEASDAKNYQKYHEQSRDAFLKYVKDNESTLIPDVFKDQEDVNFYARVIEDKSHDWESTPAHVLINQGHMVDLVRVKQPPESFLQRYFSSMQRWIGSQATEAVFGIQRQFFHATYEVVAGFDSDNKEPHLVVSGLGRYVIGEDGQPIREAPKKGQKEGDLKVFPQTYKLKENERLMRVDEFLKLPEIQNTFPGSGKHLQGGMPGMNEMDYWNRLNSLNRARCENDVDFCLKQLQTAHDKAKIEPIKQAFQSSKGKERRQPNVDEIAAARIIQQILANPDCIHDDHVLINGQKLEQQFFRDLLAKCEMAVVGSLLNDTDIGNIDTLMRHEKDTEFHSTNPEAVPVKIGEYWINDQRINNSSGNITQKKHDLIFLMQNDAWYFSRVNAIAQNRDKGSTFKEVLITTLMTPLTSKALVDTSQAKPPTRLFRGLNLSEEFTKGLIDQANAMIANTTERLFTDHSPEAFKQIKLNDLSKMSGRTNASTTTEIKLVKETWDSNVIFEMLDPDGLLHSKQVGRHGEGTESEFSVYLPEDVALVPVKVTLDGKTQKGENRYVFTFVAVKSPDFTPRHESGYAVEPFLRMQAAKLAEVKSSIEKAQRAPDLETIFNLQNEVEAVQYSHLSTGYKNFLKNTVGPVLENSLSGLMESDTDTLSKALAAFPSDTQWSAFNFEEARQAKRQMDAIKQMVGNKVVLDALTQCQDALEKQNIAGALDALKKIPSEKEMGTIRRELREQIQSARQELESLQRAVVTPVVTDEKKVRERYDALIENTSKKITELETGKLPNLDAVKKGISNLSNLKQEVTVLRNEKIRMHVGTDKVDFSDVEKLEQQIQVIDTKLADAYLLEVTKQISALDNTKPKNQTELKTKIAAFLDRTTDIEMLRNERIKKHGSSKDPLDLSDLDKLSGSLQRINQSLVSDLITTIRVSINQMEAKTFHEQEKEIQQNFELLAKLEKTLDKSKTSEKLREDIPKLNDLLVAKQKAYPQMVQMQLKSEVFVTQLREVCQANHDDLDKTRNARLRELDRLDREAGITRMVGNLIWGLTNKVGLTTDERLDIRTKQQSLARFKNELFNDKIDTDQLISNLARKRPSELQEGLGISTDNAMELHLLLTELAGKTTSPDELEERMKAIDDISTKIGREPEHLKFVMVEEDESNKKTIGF

SMILES: CSCC[C@H](NC(=O)c1ccc(-c2c3ccc(=O)cc-3oc3cc(O)ccc23)c(C(=O)O)c1)C(=O)N[C@@H](CO)C(=O)N[C@@H](CO)C(=O)N[C@@H](CCSC)C(=O)N[C@@H](CC(N)=O)C(=O)N1CCC[C@H]1C(=O)N[C@@H](CCC(=O)O)C(=O)N[C@@H](Cc1ccc(O)cc1)C(=O)N[C@@H](CC(=O)O)C(N)=O [peptide] (HELM PEPTIDE1{[O=C(O)c1cc(C(=O)[*:2])ccc1-c1c2ccc(=O)cc-2oc2cc(O)ccc12].M.S.S.M.N.P.E.Y.D.[am]}$$$$V2.0)
- ubiquitination of peptide by SdeA (fluorescence polarization) [1]: significant increase in FP
- Km ([1]; read-out: apparent KM): ~80 µM
- in-gel fluorescence of ubiquitinated peptide (SDS-PAGE) [2]: presence of a fluorescent band around 10 kDa

SMILES: Nc1ncnc2c1ncn2[C@@H]1O[C@H](COP(=O)(O)O)[C@@H](O)[C@H]1O [AMP, adenosine monophosphate]
- inhibition of peptide ubiquitination [3]: inhibition of peptide ubiquitination; also recorded: impairment of peptide ubiquitination
- inhibitor of SdeA-catalyzed ubiquitination (previous study) [4]: weak inhibitor

SMILES: NC(=O)c1ccc[n+]([C@@H]2O[C@H](COP(=O)([O-])OP(=O)([O-])OC[C@H]3O[C@@H](n4cnc5c4nc[n+]4cc[nH]c54)C(O)[C@H]3O)[C@H](O)C2O)c1 (some centres unmarked) [εNAD^+, nicotinamide 1,N6-ethenoadenine dinucleotide]
- fluorescence increase on incubation with SdeA and Ub [5]: increase in fluorescence emission at 410 nm

SMILES: NC(=O)c1ccc[n+]([C@@H]2O[C@H](COP(=O)(O)OP(=O)([O-])OC[C@H]3O[C@@H](c4snc5c(N)ncnc45)C(O)C3O)C(O)C2O)c1 (some centres unmarked) [N^tzAD^+]
- fluorescence increase on incubation with SdeA and Ub ([5]; listed as NtzAD+): lower fold increase in fluorescence intensity

SMILES: Nc1ncnc2c1ncn2[C@@H]1O[C@H](COP(=O)(O)OP(=O)(O)OC[C@H]2OC(O)[C@H](O)[C@@H]2O)[C@@H](O)[C@H]1O (some centres unmarked) [ADP-ribose]
- inhibition of peptide ubiquitination [3]: inhibition of peptide ubiquitination; also recorded: impairment of peptide ubiquitination
